Experimental data from ChEMBL document CHEMBL3817770, “Design and synthesis of 5-aminolaevulinic acid/3-hydroxypyridinone conjugates for photodynamic therapy: enhancement of protoporphyrin IX production and photo-toxicity in tumor cells” (Medchemcomm, 2016).
The source made the active and inactive calls. The rule behind the calls is not given here.

What was measured:
[1] = Increase in protoporphyrin 9 levels in human BPH1 cells at 100 uM after 24 hrs by fluorescence spectrometer plate reader method relative to ALA; type: ADME, cell-based; conditions: bph-1, 24 h
[2] = Dark toxicity in human BPH1 cells at 200 uM after 4 hrs by MTT assay; type: cell-based; conditions: bph-1, 4 h
LNCaP [3] = assay: Increase in protoporphyrin 9 levels in human LNCAP cells at 100 uM after 24 hrs by fluorescence spectrometer plate reader method relative to ALA; type: functional
KB [4] = assay: Increase in protoporphyrin 9 levels in human KB cells at 100 uM after 24 hrs by fluorescence spectrometer plate reader method relative to ALA; type: functional
LNCaP [5] = assay: Phototoxicity in human LNCAP cells assessed as cell survival at 100 uM incubated for 4 hrs followed by irradiation with blue light for 5 mins by MTT assay; type: functional
KB [6] = assay: Increase in protoporphyrin 9 levels in human KB cells at 200 uM after 3 to 24 hrs by fluorescence spectrometer plate reader method; type: functional, cell-based
A549 [7] = assay: Phototoxicity in human A549 cells assessed as cell survival at 200 uM incubated for 4 hrs followed by irradiation with blue light for 5 mins by MTT assay; type: functional
[8] = Phototoxicity in human BPH1 cells assessed as cell survival at 200 uM incubated for 4 hrs followed by irradiation with blue light for 5 mins by MTT assay; type: cell-based, BPH-1; conditions: bph-1, 4 h, 200 µM
MCF7 [9] = assay: Dark toxicity in human MCF7 cells at 200 uM after 4 hrs by MTT assay; type: cell-based; conditions: mcf7, 4 h
A549 [10] = assay: Dark toxicity in human A549 cells at 200 uM after 4 hrs by MTT assay; type: cell-based; conditions: a549, 4 h
A549 [11] = assay: Increase in protoporphyrin 9 levels in human A549 cells at 100 uM after 24 hrs by fluorescence spectrometer plate reader method relative to ALA; type: functional
LNCaP [12] = assay: Dark toxicity in human LNCAP cells at 200 uM after 4 hrs by MTT assay; type: cell-based
[13] = Increase in protoporphyrin 9 levels in human BPH1 cells at 200 uM after 3 to 24 hrs by fluorescence spectrometer plate reader method; type: ADME, cell-based; conditions: bph-1, 200 µM
LNCaP [14] = assay: Phototoxicity in human LNCAP cells assessed as cell survival at 200 uM incubated for 4 hrs followed by irradiation with blue light for 5 mins by MTT assay; type: functional
A549 [15] = assay: Increase in protoporphyrin 9 levels in human A549 cells at 200 uM after 3 to 24 hrs by fluorescence spectrometer plate reader method; type: functional, cell-based
KB [16] = assay: Phototoxicity in human KB cells assessed as cell survival at 200 uM incubated for 4 hrs followed by irradiation with blue light for 5 mins by MTT assay; type: functional
A549 [17] = assay: Phototoxicity in human A549 cells assessed as cell survival at 100 uM incubated for 4 hrs followed by irradiation with blue light for 5 mins by MTT assay; type: functional
LNCaP [18] = assay: Increase in protoporphyrin 9 levels in human LNCAP cells at 200 uM after 3 to 24 hrs by fluorescence spectrometer plate reader method; type: functional, cell-based
MCF7 [19] = assay: Phototoxicity in human MCF7 cells assessed as cell survival at 100 uM incubated for 4 hrs followed by irradiation with blue light for 5 mins by MTT assay; type: functional

Row | Compound | Activity [1] | Activity [2] | Activity (LNCaP [3]) | Activity (KB [4]) | Activity (LNCaP [5]) | Activity (KB [6]) | Activity (A549 [7]) | Activity [8] | Activity (MCF7 [9]) | Activity (A549 [10]) | Activity (A549 [11]) | Activity (LNCaP [12]) | Activity [13] | Activity (LNCaP [14]) | Activity (A549 [15]) | Activity (KB [16]) | Activity (A549 [17]) | Activity (LNCaP [18]) | Activity (MCF7 [19])
1 | CCCCCCn1ccc(=O)c(O)c1C(=O)N[C@@H](Cc1ccccc1)C(=O)NCC(=O)CCC(=O)OC | Non-toxic | Non-toxic | inactive | inactive | inactive | inactive | inactive | Non-toxic | Non-toxic | Non-toxic | inactive | Non-toxic | Non-toxic | inactive | inactive | inactive | inactive | inactive | inactive
2 | CCCCCCn1ccc(=O)c(O)c1C(=O)N[C@@H](CC(C)C)C(=O)NCC(=O)CCC(=O)OC | Non-toxic | Non-toxic | inactive | inactive | inactive | inactive | inactive | Non-toxic | Non-toxic | Non-toxic | inactive | Non-toxic | Non-toxic | inactive | inactive | inactive | inactive | inactive | inactive
3 | CCn1ccc(=O)c(O)c1C(=O)N[C@@H](Cc1ccccc1)C(=O)NCC(=O)CCC(=O)OC | Non-toxic | Non-toxic | inactive | inactive | inactive | inactive | inactive | Non-toxic | Non-toxic | Non-toxic | inactive | Non-toxic | Non-toxic | inactive | inactive | inactive | inactive | inactive | inactive
4 | CCn1ccc(=O)c(O)c1C(=O)N[C@@H](CC(C)C)C(=O)NCC(=O)CCC(=O)OC | Non-toxic | Non-toxic | inactive | inactive | inactive | inactive | inactive | Non-toxic | Non-toxic | Non-toxic | inactive | Non-toxic | Non-toxic | inactive | inactive | inactive | inactive | inactive | inactive
